# Results reported in ChEMBL document CHEMBL3603797, “Factors that influence T box riboswitch efficacy and tRNA affinity” (Bioorg Med Chem, 2015).
# Activity calls are given as the source filed them. The calls are words filed in the database; no cut-off is given here.
# What was measured:
# [1] = Inhibition of readthrough probe 5'Cy5-CGCAccuccacuuuucuuucauaaTGCG-Dabcyl3' binding to 5'UUAUGAAAGAAAAGUGGAGGUGC3' RNA (unknown origin) by fluorescence assay
# [2] = Binding affinity to Bacillus subtilis glyQS T box riboswitch mRNA assessed as inhibition of tRNAgly-induced glyQS transcription readthrough after 3 hrs by fluorescence assay
smiles,measurement,setting,value
CN(CCCc1ccccc1)Cc1cn(CC(O)COC(=O)NCc2ccccc2)nn1 (configuration not stated),inhibition,[1],inactive
same,IC50,[2],8 µM
